Test results reported in PubChem BioAssay AID328 (DTP/NCI, 2004).
“And” between values parts separate entries of the source, which are not always exact repeats. Equal values may be shown once. Toxic doses and inconclusive results are not listed.

Tested on: BDF1 mice, P388 leukemia ip, median survival T/C
Experiment: NCI In Vivo Anticancer Drug Screen. Data for tumor model P388 Leukemia (intraperitoneal) in B6D2F1 (BDF1) mice
Details: endpoint: median survival time, higher = longer survival
Summary of the method: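 Reported as T/C, where T is the survival measurement in dosed animals and C the same measurement in vehicle controls.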

[1] = dose: 200.0 mg/kg/injection, schedule: Q01DX009 (ip), vehicle: Klucel (hydroxypropylcellulose) (HPC)
[2] = dose: 400.0 mg/kg/injection, schedule: Q01DX009 (ip), vehicle: Klucel (hydroxypropylcellulose) (HPC)
[3] = dose: 50.0 mg/kg/injection, schedule: Q01DX009 (ip), vehicle: saline with Tween-80
[4] = dose: 100.0 mg/kg/injection, schedule: Q01DX009 (ip), vehicle: saline with Tween-80
[5] = dose: 100.0 mg/kg/injection, schedule: Q01DX009 (ip), vehicle: Klucel (hydroxypropylcellulose) (HPC)
[6] = dose: 50.0 mg/kg/injection, schedule: Q04DX003 (ip), vehicle: saline with Tween-80
[7] = dose: 100.0 mg/kg/injection, schedule: Q04DX003 (ip), vehicle: saline with Tween-80
[8] = dose: 200.0 mg/kg/injection, schedule: Q01DX009 (ip), vehicle: saline with Tween-80
[9] = dose: 100.0 mg/kg/injection, schedule: Q01DX009 (ip), vehicle: saline
[10] = dose: 100.0 mg/kg/injection, schedule: Q04DX003 (ip), vehicle: saline
[11] = dose: 12.5 mg/kg/injection, schedule: Q01DX009 (ip), vehicle: saline
[12] = dose: 12.5 mg/kg/injection, schedule: Q04DX003 (ip), vehicle: saline
[13] = dose: 25.0 mg/kg/injection, schedule: Q04DX003 (ip), vehicle: saline
[14] = dose: 50.0 mg/kg/injection, schedule: Q01DX009 (ip), vehicle: saline
[15] = dose: 50.0 mg/kg/injection, schedule: Q04DX003 (ip), vehicle: saline
[16] = dose: 25.0 mg/kg/injection, schedule: Q01DX009 (ip), vehicle: saline with Tween-80

## COC12CC3(C)C(C4=CC(=O)OC4)CCC3(O)C3CCC4=CC(=O)CCC4(CO1)C32 (stereo not given)
dose: 56.0 mg/kg/injection, schedule: Q01DX010 (ip), vehicle: carboxymethylcellulose (CMC)
  T/C: 95 % of control
dose: 112.5 mg/kg/injection, schedule: Q01DX010 (ip), vehicle: carboxymethylcellulose (CMC)
  T/C: 100 % of control
dose: 225.0 mg/kg/injection, schedule: Q01DX010 (ip), vehicle: carboxymethylcellulose (CMC)
  T/C: 90 % of control

## O=C(O)/C=C\C(=O)Nc1ccccc1
dose: 6.25 mg/kg/injection, schedule: Q01DX009 (ip), vehicle: Klucel (hydroxypropylcellulose) (HPC)
  T/C: 105 % of control
dose: 12.5 mg/kg/injection, schedule: Q01DX009 (ip), vehicle: Klucel (hydroxypropylcellulose) (HPC)
  T/C: 94 % of control
dose: 25.0 mg/kg/injection, schedule: Q01DX009 (ip), vehicle: Klucel (hydroxypropylcellulose) (HPC)
  T/C: 94 % of control
dose: 50.0 mg/kg/injection, schedule: Q01DX009 (ip), vehicle: Klucel (hydroxypropylcellulose) (HPC)
  T/C: 115 % of control
[1]
  T/C: 86 % of control
[2]
  T/C: 95 % of control

## CCCC/C=C/CO
[3]
  T/C: 108 % of control
[4]
  T/C: 103 % of control

## COC(=O)c1ccccc1C1(c2ccccc2C(=O)OC)OC(=O)c2ccccc21
[5]
  T/C: 100 % of control
[1]
  T/C: 100 % of control
[2]
  T/C: 100 % of control

## COc1cc2c(cc1Oc1c(Oc3c(O)c(OC)cc4c3C(CC(C)C)N(C)CC4)c(OC)cc3c1C(CC(C)C)N(C)CC3)C(CC(C)C)N(C)CC2 (stereo not given)
dose: 12.5 mg/kg/injection, schedule: Q01DX010 (ip), vehicle: saline
  T/C: 95 % of control
dose: 25.0 mg/kg/injection, schedule: Q01DX010 (ip), vehicle: saline
  T/C: 90 % of control
dose: 50.0 mg/kg/injection, schedule: Q01DX010 (ip), vehicle: saline
  T/C: 95 % of control

## CCCCCCCCCCCCCSCCCCCCCCCCCCSCCCCCCCCCCCC
dose: 100.0 mg/kg/injection, schedule: Q01DX001 (ip), vehicle: saline sonified
  T/C: 86 % of control
dose: 200.0 mg/kg/injection, schedule: Q01DX001 (ip), vehicle: saline sonified
  T/C: 86 % of control
dose: 400.0 mg/kg/injection, schedule: Q01DX001 (ip), vehicle: saline sonified
  T/C: 90 % of control

## CC(=O)C(C)(CCC#N)CCC#N
[6]
  T/C: 104 % of control
[7]
  T/C: 100 % of control

## CCCC(F)C(=O)OCC (stereo not given)
[4]
  T/C: 90 % of control
[7]
  T/C: 100 % of control
[8]
  T/C: 104 % of control
dose: 200.0 mg/kg/injection, schedule: Q04DX003 (ip), vehicle: saline with Tween-80
  T/C: 109 % of control
dose: 400.0 mg/kg/injection, schedule: Q01DX009 (ip), vehicle: saline with Tween-80
  T/C: 118 % of control
dose: 400.0 mg/kg/injection, schedule: Q04DX003 (ip), vehicle: saline with Tween-80
  T/C: 100 % of control

## O=C(O)C1=NN(c2cc(Cl)c(S(=O)(=O)O)cc2Cl)C(=O)C1
[5]
  T/C: 100 % of control
[9]
  T/C: 110 % of control
[10]
  T/C: 95 % of control
dose: 175.0 mg/kg/injection, schedule: Q01DX009 (ip), vehicle: other
  T/C: 100 % of control
[1]
  T/C: 108 % of control
dose: 200.0 mg/kg/injection, schedule: Q01DX009 (ip), vehicle: saline
  T/C: 120 % of control
dose: 200.0 mg/kg/injection, schedule: Q04DX003 (ip), vehicle: saline
  T/C: 95 % of control
dose: 265.0 mg/kg/injection, schedule: Q01DX009 (ip), vehicle: other
  T/C: 88 % of control
[2]
  T/C: 104 % of control
dose: 400.0 mg/kg/injection, schedule: Q01DX009 (ip), vehicle: other
  T/C: 100 % of control
dose: 400.0 mg/kg/injection, schedule: Q04DX003 (ip), vehicle: saline
  T/C: 118 % of control
dose: 600.0 mg/kg/injection, schedule: Q01DX009 (ip), vehicle: other
  T/C: 88 % of control

## N#CN1CC(C(=O)N2CCCCC2)C=C2c3cccc4[nH]cc(c34)CC21 (stereo not given)
dose: 6.25 mg/kg/injection, schedule: Q01DX009 (ip), vehicle: saline
  T/C: 106 % of control
dose: 6.25 mg/kg/injection, schedule: Q04DX003 (ip), vehicle: saline
  T/C: 114 % of control
[11]
  T/C: 94 % of control
[12]
  T/C: 113 % of control
[13]
  T/C: 106 % of control
[14]
  T/C: 88 % of control
[15]
  T/C: 106 % of control
[10]
  T/C: 94 % of control

## CCN(CC)CCCC(C)Nc1c2ccc(C)cc2nc2ccc(OC)cc12 (stereo not given)
[3]
  T/C: 123 % of control

## CC(C(Cl)c1ccccc1)S(=O)c1ccccc1 (stereo not given)
[3]
  T/C: 108 % of control
[4]
  T/C: 103 % of control
[8]
  T/C: 105 % of control

## c1ccc2cc(OCC3CO3)c(OCC3CO3)cc2c1 (stereo not given)
dose: 30.0 mg/kg/injection, schedule: Q01DX005 (ip), vehicle: saline with Tween-80
  T/C: 161 % of control
dose: 60.0 mg/kg/injection, schedule: Q01DX005 (ip), vehicle: saline with Tween-80
  T/C: 157 % of control
dose: 120.0 mg/kg/injection, schedule: Q01DX005 (ip), vehicle: saline with Tween-80
  T/C: 176 % of control

## O=C1NC(c2ccc3ccccc3n2)Nc2ccccc21 (stereo not given)
[5]
  T/C: 105 % of control
[1]
  T/C: 100 % of control
[2]
  T/C: 110 % of control

## COc1ccc(N=NNc2ccc(OC)cc2)cc1
[16]
  T/C: 154 % of control
dose: 37.5 mg/kg/injection, schedule: Q01DX009 (ip), vehicle: saline with Tween-80
  T/C: 155 % of control and 166 % of control

## CCC(CC)N(C)C(C)(C)CO
[16]
  T/C: 100 % of control
[3]
  T/C: 91 % of control
dose: 50.0 mg/kg/injection, schedule: Q04DX003 (ip), vehicle: saline sonified
  T/C: 104 % of control
[4]
  T/C: 108 % of control
dose: 100.0 mg/kg/injection, schedule: Q04DX003 (ip), vehicle: saline sonified
  T/C: 104 % of control
dose: 200.0 mg/kg/injection, schedule: Q04DX003 (ip), vehicle: saline sonified
  T/C: 113 % of control

## CCOC1=NCCCCCCC1
[3]
  T/C: 98 % of control
[4]
  T/C: 97 % of control
[8]
  T/C: 99 % of control

## C1CO[Te]2(O1)OCCO2
dose: 12.5 mg/kg/injection, schedule: Q04DX003 (ip), vehicle: saline with Tween-80
  T/C: 97 % of control
dose: 25.0 mg/kg/injection, schedule: Q04DX003 (ip), vehicle: saline with Tween-80
  T/C: 88 % of control
[6]
  T/C: 88 % of control

## C[n+]1cccc2ccccc21
[11]
  T/C: 95 % of control
[12]
  T/C: 104 % of control
dose: 25.0 mg/kg/injection, schedule: Q01DX009 (ip), vehicle: saline
  T/C: 100 % of control and 105 % of control
[13]
  T/C: 104 % of control
[14]
  T/C: 100 % of control and 110 % of control
[15]
  T/C: 109 % of control
[9]
  T/C: 109 % of control

## Cn1ncc2c(N)c(C#N)c(=O)[nH]c21
dose: 100.0 mg/kg/injection, schedule: Q01DX001 (ip), vehicle: saline with Tween-80
  T/C: 114 % of control
